In patent publication US7375105B2, “Pyridine substituted furan derivatives as Raf kinase inhibitors” (SmithKline Beecham p.l.c., priority 2001, dated 2008):
pIC50: −log10 of the molar value.

Legend:
B-Raf = B-Raf (Homo sapiens, UniProt P15056); assay: Fluorescence anisotropy kinase binding assay (Assay 1)
Excerpt: Fluorescence Anisoptrophy Kinase Binding Assay
The concentration of kinase enzyme should preferably be >1×Kf. The concentration of fluorescent ligand required will depend on the instrumentation used, and the fluorescent and physicochemical properties. The concentration used must be lower than the concentration of kinase enzyme, and preferably less than half the kinase enzyme concentration. A typical protocol is:
All compounds are serially diluted in DMSO, then by a one step dilution into buffer of comparison, 50 mM HEPES, […] pH7.5, 1 mM CHAPS, 10 mM MgCL2, for the assay.
B-Raf Enzyme concentration: 1 nM
Fluorescent ligand concentration: 0.5 nM
Test compound concentration: 0.5 nM-100 uM
Components incubated in 10 ul final volume in LJL HE 384 type B black microtitre plate until equilibrium reached (Over 3 h, up to 30 h)
Fluorescence anisotropy read in an LJL Acquest fluorescence reader.
Definitions: Ki=dissociation constant for inhibitor binding
• Kf=dissociation constant for fluorescent ligand binding
The fluorescent ligand is the following compound:
which is derived from 5-[2-(4-aminomethylphenyl)-5-pyridin-4-yl-1H-imidazol-4-yl]-2-chlorophenol and rhodamine green.

[1] = test system: Human diploid foreskin fibroblasts (HFF); assay: XTT 72 hr growth inhibition (Assay 3), HFF; assay type: cell-based; details: Fibroblast, normal, B-Raf wt, Ras wt
Procedure: (§1) XTT 72 Hr Growth Inhibition Protocol for Mammalian Cultured Cells (Assay 3)
(§2) Human diploid foreskin fibroblasts (HFF) or human colon carcinoma (Colo 201) cells were grown in Dulbecco's modified Eagle's medium (DMEM) (Invitrogen/Life Technologies) containing 10% fetal bovine serum (FBS) and the antibiotics penicillin (100 Units/ml) and streotomycin (100 micrograms/ml) (Invitrogen/Life Technologies). Growth was at 37° C. in humidified 5% CO2 incubators in 75 cm^2 plastic flasks. Cells were harvested using 0.25% trypsin/1 mM ethylenediaminetetraacetic acid (EDTA), resuspended in growth medium, and counted using a hemocytometer. Flat-bottomed 96-well plates were seeded with 2×10^3 cells/well in a volume of 200 ul from trypsinized exponentially growing cultures. To “blank” wells, growth medium was added with no additions. Cells were incubated overnight to permit attachment.
(§3) Next day, medium from wells that contained cells was replaced with 180 microliters of fresh medium. Appropriate dilutions of test compounds were added to the wells from stock solutions of compound dissolved in dimethyl sulfoxide (DMSO); final DMSO concentration in all wells was 0.2%. […] Absorbance at 450 nm was then determined using a 96-well UV plate reader (Molecular Devices). Under these conditions, absorbance of untreated control cells at 450 nm was at least 1.0 optical density unit/ml. […]

human melanoma SKMEL2 = assay: Methylene blue growth inhibition assay (Assay 2), SKMEL2; assay type: cell-based; details: SK-MEL-2, B-Raf wt, [Q61R]N-Ras
Procedure: (§4) Methylene Blue Growth Inhibition Assay (Assay 2)
(§5) Normal human foreskin fibroblasts (HFF), human melanoma (A375P, SKMEL2, SKMEL3) colon carcinoma (Colo 205) were cultured in the following growth media: A375P, Colo 205, Roswell Park Memorial Institute (RPMI) 1640 (Life Technologies 22400-089) containing 10% fetal bovine serum (FBS); HFF, Dulbecco's modified Eagle Medium (DMEM) (Life Technologies 12320-032) containing 10% FBS; SKMEL2 and SKMEL3, Minimum Essential Medium (MEM, Life Technologies 11095-080) containing 1× non-essential amino acids (Life Technologies 11140-050) and 10% FBS. Cells were harvested using 0.25% trypsin/1 mM, EDTA, counted using a haemocytometer, and plated in 100 microliters of the appropriate media, at the following densities, in a 96-well tissue culture plate (Falcon 3075): HFF and A375P, 5,000 cells/well; all other cell lines, 10,000 cells/well. The next day, compounds were diluted in RPMI containing 100 micrograms/ml gentamicin, at twice the final required concentration, from 10 mM stock solutions in dimethyl sulphoxide (DMSO). One hundred microliters per well of these dilutions were added to the 100 microliters of media currently on the cell plates. RPMI containing 0.6% DMSO was added to control wells. […] Optical density at 620 nm was measured on a microplate reader. Percent inhibition of cell growth was calculated relative to vehicle treated control wells. […]

[2] = test system: human colon carcinoma (Colo 201) cells; assay: XTT 72 hr growth inhibition (Assay 3), Colo201; assay type: cell-based; details: colorectal cancer, B-Raf ND, Ras ND
Procedure: as §1, §2, §3

[3] = test system: colon carcinoma (Colo 205); assay: Methylene blue growth inhibition assay (Assay 2), Colo205; assay type: cell-based; details: Homo sapiens, colorectal cancer, B-Raf V599E, Ras wt
Procedure: as §4, §5

human melanoma SKMEL3 = assay: Methylene blue growth inhibition assay (Assay 2), SKMEL3; assay type: cell-based; details: SK-MEL3, B-Raf V599E, Ras wt
Procedure: as §4, §5

human melanoma A375P = assay: Methylene blue growth inhibition assay (Assay 2), A375P; assay type: cell-based; details: B-Raf V599E, Ras wt
Procedure: as §4, §5

Sequence of B-Raf (P15056 whole entry): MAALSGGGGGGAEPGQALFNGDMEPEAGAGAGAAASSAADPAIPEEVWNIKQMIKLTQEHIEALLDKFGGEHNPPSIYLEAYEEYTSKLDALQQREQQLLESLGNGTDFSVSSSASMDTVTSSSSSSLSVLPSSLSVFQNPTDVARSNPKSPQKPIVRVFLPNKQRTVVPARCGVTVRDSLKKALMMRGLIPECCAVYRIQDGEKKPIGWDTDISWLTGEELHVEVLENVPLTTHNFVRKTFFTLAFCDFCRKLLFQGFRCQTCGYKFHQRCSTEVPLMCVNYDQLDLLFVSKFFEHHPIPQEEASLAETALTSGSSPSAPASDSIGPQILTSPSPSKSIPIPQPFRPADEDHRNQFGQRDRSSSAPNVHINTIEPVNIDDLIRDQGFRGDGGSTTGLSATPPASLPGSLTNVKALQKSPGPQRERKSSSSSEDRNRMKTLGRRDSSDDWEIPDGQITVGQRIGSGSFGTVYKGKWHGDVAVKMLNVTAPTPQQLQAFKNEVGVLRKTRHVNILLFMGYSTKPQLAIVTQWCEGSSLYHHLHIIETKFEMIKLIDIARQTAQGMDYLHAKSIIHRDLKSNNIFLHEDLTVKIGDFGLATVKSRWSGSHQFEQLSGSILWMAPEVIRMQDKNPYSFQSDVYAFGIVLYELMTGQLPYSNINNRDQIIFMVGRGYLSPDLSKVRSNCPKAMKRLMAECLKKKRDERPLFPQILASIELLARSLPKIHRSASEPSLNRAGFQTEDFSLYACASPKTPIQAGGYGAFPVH

## CC(C)(CN)c1cc(-c2ccncc2)c(-c2ccc(Cl)c(O)c2)o1 [Example 3, 5-[5-(2-Amino-1,1-dimethyl-ethyl)-3-pyridin-4-yl-furan-2-yl]-2-chloro-phenol]
B-Raf
  Kd: 5.5 nM
[1]
  pIC50: 4.66
Human melanoma SKMEL2
  pIC50: 5.31
[2]
  pIC50: 5.07
[3]
  pIC50: 5.10
Human melanoma SKMEL3
  pIC50: 5.85
Human melanoma A375P
  pIC50: 5.74
